Source: PubChem BioAssay AID624460 (Sanford-Burnham Center for Chemical Genomics, 2012)
Where “and” joins values, the source holds several entries; their conditions need not be identical. Identical values can stand only once. Calls of active or inactive are those of the source.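 How the source made its calls: active means protection of heart cells from peroxide damage with half-maximal concentration of 20 µM or lower (some results past the limit were not filed as active); inactive means the rest.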

System: HL-1 cardiomyocytes, H2O2 injury, ATPLite viability, 2 h
Assay: cardiomyocyte survival under H2O2 injury – HL-1 cells, peroxide, set 2, SAR follow-up (AID 624460)

COc1cc(-c2cc(C(=O)Nc3cccc(Cl)c3)c3ccccc3n2)cc(OC)c1OC
EC50: > 79 µM (inactive)

O=C1c2ccccc2N2C(=O)c3ccccc3C2N1c1cccc(Br)c1 (stereo not drawn)
EC50: > 79 µM (inactive)

COc1ccc2c(c1OC)C(=O)N1c3ccccc3C(=O)N(c3ccc(Br)cc3)C21 (stereo not drawn)
EC50: > 79 µM (inactive)

CC(=O)c1cccc(NC(=O)c2cc(-c3ccccc3)nc3ccccc23)c1
EC50: > 79 µM (inactive)

CCOC(=O)c1cccc(NC(=O)c2cc(-c3cc(OC)c(OC)c(OC)c3)nc3ccccc23)c1
EC50: 3.15 µM

COc1cc(-c2cc(C(=O)Nc3ccccc3)c3ccccc3n2)cc(OC)c1OC
EC50: > 79 µM (inactive)

COc1cccc(CNC(=O)c2cc(-c3ccc(OC)c(OC)c3)nc3ccccc23)c1
EC50: 10.6 µM (inactive)

COc1cc(-c2cc(C(=O)Nc3cccc(C(C)=O)c3)c3ccccc3n2)cc(OC)c1OC
EC50: 1.47 µM and 8.54 µM

COc1ccc2c(c1OC)C(=O)N1c3ccccc3C(=O)N(c3cccc(C)c3)C21 (stereo not drawn)
EC50: 60.3 µM (inactive)

COc1ccc2c(c1OC)C(=O)N1c3ccccc3C(=O)N(Cc3ccccc3Cl)C21 (stereo not drawn)
EC50: > 79 µM (inactive)

COc1ccc2c(c1OC)C(=O)N1c3ccccc3C(=O)N(c3cccc(F)c3)C21 (stereo not drawn)
EC50: 34.7 µM (inactive)

CCN(CC(=O)Nc1ccc(OC)cc1)C(=O)c1cc(-c2cccs2)nn1-c1ccccc1
EC50: 70.2 µM (inactive) and > 79 µM (inactive)

COc1cc(-c2cc(C(=O)Nc3cccc(C(C)=O)c3)c3cc(Cl)ccc3n2)cc(OC)c1OC
EC50: 3.26 µM

COc1cc(-c2cc(C(=O)Nc3cccc(C(F)(F)F)c3)c3ccccc3n2)cc(OC)c1OC
EC50: > 79 µM (inactive)

COc1ccc2c(c1OC)C(=O)N1c3ccccc3C(=O)N(c3ccc(C)cc3)C21 (stereo not drawn)
EC50: > 79 µM (inactive)

CCN(CC(=O)Nc1ccccc1)C(=O)c1cc(-c2cccs2)nn1-c1ccccc1
EC50: > 79 µM (inactive)

COc1ccc(N2C(=O)c3ccccc3N3C(=O)c4c(ccc(OC)c4OC)C23)cc1 (stereo not drawn)
EC50: 23.5 µM (inactive)

COc1cccc(NC(=O)c2cc(-c3cc(OC)c(OC)c(OC)c3)nc3ccccc23)c1
EC50: 9.39 µM

O=C1c2ccccc2N2C(=O)c3ccccc3C2N1c1ccccc1 (stereo not drawn)
EC50: > 79 µM (inactive)

COc1cccc(N2C(=O)c3ccccc3N3C(=O)c4c(ccc(OC)c4OC)C23)c1 (stereo not drawn)
EC50: > 79 µM (inactive)

COc1ccc(NC(=O)c2cc(-c3cc(OC)c(OC)c(OC)c3)nc3ccccc23)cc1
EC50: 10.2 µM (inactive)

COc1ccc2c(c1OC)C(=O)N1c3ccccc3C(=O)N(c3cccc(Cl)c3)C21 (stereo not drawn)
EC50: > 79 µM (inactive)

COc1ccc2c(c1OC)C(=O)N1c3ccccc3C(=O)N(c3ccc(C(C)(C)C)cc3)C21 (stereo not drawn)
EC50: > 79 µM (inactive)

COc1ccc2c(c1OC)C(=O)N1c3ccccc3C(=O)N(c3ccccc3)C21 (stereo not drawn)
EC50: > 79 µM (inactive)

COc1cccc(-c2cc(C(=O)Nc3cccc(C(C)=O)c3)c3ccccc3n2)c1
EC50: > 79 µM (inactive)

COc1cc(-c2cc(C(=O)Nc3cccc(F)c3)c3ccccc3n2)cc(OC)c1OC
EC50: 16.4 µM (inactive)

COc1ccc2c(c1OC)C(=O)N1c3ccccc3C(=O)N(c3cccc(C(F)(F)F)c3)C21 (stereo not drawn)
EC50: > 79 µM (inactive)

COc1ccc2c(c1OC)C(=O)N1c3ccccc3C(=O)N(c3cccc(Br)c3)C21 (stereo not drawn)
EC50: 3.29 µM and > 79 µM (inactive)

CCN(CC(=O)Nc1ccc(OC)cc1)C(=O)c1cc(-c2cc(OC)c(OC)c(OC)c2)nc2ccccc12
EC50: 9.39 µM

COc1ccc(-c2cc(C(=O)Nc3cccc(C(C)=O)c3)c3ccccc3n2)cc1
EC50: > 79 µM (inactive)

COc1ccc2c(c1OC)C(=O)N1c3ccccc3C(=O)N(Cc3cccc(Cl)c3)C21 (stereo not drawn)
EC50: > 79 µM (inactive)

COc1ccc(-c2cc(C(=O)Nc3cccc(C(C)=O)c3)c3ccccc3n2)cc1OC
EC50: > 79 µM (inactive)

CCN(CC(=O)Nc1ccc(C)cc1)C(=O)c1cc(-c2cccs2)nn1-c1ccccc1
EC50: > 79 µM (inactive)

COc1cc(-c2cc(C(=O)Nc3ccc(C(C)=O)cc3)c3ccccc3n2)cc(OC)c1OC
EC50: 9.93 µM

COc1cccc(N2C(=O)c3ccccc3N3C(=O)c4ccccc4C23)c1 (stereo not drawn)
EC50: > 79 µM (inactive)

CCN(CC(=O)Nc1ccc(F)cc1)C(=O)c1cc(-c2cccs2)nn1-c1ccccc1
EC50: > 79 µM (inactive)

COc1cc(-c2cc(C(=O)Nc3cccc(C)c3)c3ccccc3n2)cc(OC)c1OC
EC50: > 79 µM (inactive)

COc1cccc(CNC(=O)c2cc(-c3cc(OC)c(OC)c(OC)c3)nc3ccccc23)c1
EC50: 10.7 µM (inactive)
